Measured values reported in patent US4575508A, “2-Substituted 1-(3'-aminoalkyl)-1,2,3,4-tetrahydro-β-carbolines, and their use as antiarrhythmic agents” (BASF Aktiengesellschaft, priority 1982, dated 1986).
Where two headings read alike, the source gives them in different places.

What was measured:
Format in all cases: in vivo, male Sprague-Dawley rats
[1] = Toxicity: dose at which first cardiotoxic or neurotoxic symptoms occur, rat, oral administration; conditions: in vivo
Description: (§1) To investigate the antiarrhythmic activity, the substances were administered orally to male Sprague-Dawley rats each weighing 200-250 g. 45 minutes later, the animals were anesthetized with sodium thiobutabarbital (100 mg/kg, administered intraperitoneally). Aconitine was used as the arrhythmogenic substance, and was infused intravenously 60 minutes after administration of the substance (dosage rate: 0.005 mg per kg per min.). […] The onset of these arrhythmias could be delayed by means of antiarrhythmics, the delay achieved being dose-dependent.
(§2) For further characterization of the substances, the dose at which the first cardiotoxic symptoms (changes in the initial ECG) or neurotoxic symptoms (coordination disturbances, convulsions, etc.) occurred was determined from the decimal-geometric dosage progression (factor .cuberoot.10) used in the experiments.

[2] = test system: rat; assay: as above
Description: as §1, §2

[3] = test system: aconitine-induced arrhythmia; assay: Aconitine-induced arrhythmia in rats, oral administration (antiarrhythmic activity); conditions: for ED50: Rattus norvegicus, po, 1 h, read-out: Aconitine-induced arrhythmia ED 50% (dose which prolongs the aconitine infusion duration by 50%); for times more effective than quinidine on aconitine-induced arrhythmia / R.A. (relative activity, based on quinidine = 1.00): rat, oral; for R.A. (relative activity, based on quinidine = 1.00): aconitine-induced arrhythmia; for antiarrhythmic action (in words): general statement
Description: as §1
Linear relationships exist between the logarithms of the doses (mg/kg) of the test substances and the relative prolongation of the aconitine infusion duration (Δ%), from which relationships the dose which prolongs the infusion duration by 50% can be determined, as the ED 50%.
The known antiarrhythmic quinidine was used as a comparative substance.

| Compound | selectivity ratio ([1]; po) | Toxicity Dose (dose after the application of which the first toxic symptoms are observed) ([2]; in vivo, po) [mg/kg] | ED50 [3] [mg/kg] | times more effective than quinidine on aconitine-induced arrhythmia [3] [times] | R.A. (relative activity, based on quinidine = 1.00) [3] | antiarrhythmic action (in words) [3] | selectivity ratio ([1]; oral, measure of the therapeutic index, read-out: Toxicity Q (quotient of the toxic dose and the antiarrhythmically effective dose, ED 50%)) | Toxicity Dose (dose after the application of which the first toxic symptoms are observed) ([2]; oral, cardiotoxic or neurotoxic symptoms) [mg/kg] |
| --- | --- | --- | --- | --- | --- | --- | --- | --- |
| CC(=O)N1CCc2c([nH]c3ccccc23)C1CCCN(C)C (stereo not drawn) [Example 4, 1-(3'-Dimethylaminopropyl)-2-acetyl-1,2,3,4-tetrahydro-β-carboline] | 16 | 215 | 13.5 | 3 | 3.22 | – | – | – |
| CC(=O)N1CCc2c([nH]c3ccccc23)C1CCCN1CCN(C)CC1 (stereo not drawn) [Example 21, 1-[3'-(4-Methylpiperazin-1-yl)-propyl]-2-acetyl-1,2,3,4-tetrahydro-β-carboline] | 15 | 215 | 14.6 | 3 | 2.98 | – | – | – |
| CCCCNCCCC1c2[nH]c3ccccc3c2CCN1C(C)=O (stereo not drawn) [Example 28, 1-(3'-n-Butylaminopropyl)-2-acetyl-1,2,3,4-tetrahydro-β-carboline] | 17 | 215 | 12.4 | – | 3.51 | – | – | – |
| CCCCN(CCCC)CCCC1c2[nH]c3ccccc3c2CCN1C(C)=O (stereo not drawn) [Example 31, 1-[3'-(Di-n-butyl)-aminopropyl]-2-acetyl-1,2,3,4-tetrahydro-β-carboline] | 13 | 21.5 | 1.71 | – | 25.44 | – | – | – |
| CCC(C)N(CCCC1c2[nH]c3ccccc3c2CCN1C(C)=O)C(C)CC (stereo not drawn) [Example 33, 1-[3'-(Di-2-butyl)-aminopropyl]-2-acetyl-1,2,3,4-tetrahydro-β-carboline] | 14 | 21.5 | 1.57 | – | 27.71 | – | – | – |
| CCCN(CCC)CCCC1c2c(c3ccccc3n2C)CCN1C(C)=O (stereo not drawn) [Example 42, 1-(3'-Dipropylaminopropyl)-2-acetyl-9-methyl-1,2,3,4-tetrahydro-β-carboline] | 12 | 10 | 0.842 | – | 51.66 | particularly active | – | – |
| CC(=O)N1CCc2c(n(C)c3ccccc23)C1CCCN(CC(C)C)CC(C)C (stereo not drawn) [Example 43, 1-[3'-(Di-2-methylpropyl)-aminopropyl]-2-acetyl-9-methyl-1,2,3,4-tetrahydro-β-carboline] | 13 | 10 | 0.803 | – | 54.17 | particularly active | – | – |
| CCn1c2c(c3ccccc31)CCN(C(C)=O)C2CCCN1CCN(C)CC1 (stereo not drawn) [Example 44, 1-[3'-(4-Methylpiperazin-1-yl)-propyl]-2-acetyl-9-ethyl-1,2,3,4-tetrahydro-β-carboline] | 23 | 215 | 9.21 | – | 4.72 | – | – | – |
| CCCN(CCCC1c2c(c3ccccc3n2C)CCN1C(C)=O)C(C)C (stereo not drawn) [Example 46, 1-[3'-(Isopropylpropyl)-aminopropyl]-2-acetyl-9-methyl-1,2,3,4-tetrahydro-β-carboline] | – | – | 0.732 | 59 | 59.43 | – | 14 | 4.64 |
| C=C[C@H]1C[N@@]2CC[C@H]1C[C@@H]2[C@@H](O)c1ccnc2ccc(OC)cc12 [quinidine, reference compound] | – | – | 43.5 | – | – | – | – | – |
